Data reported in paper PMC7055688 (Journal of fluorine chemistry, 2019).
≈ marks a conversion by molar mass, not a printed value.

Columns and labels:
human sEH = molecular target: T1, human sEH (Homo sapiens, UniProt P34913); assay: kinetic fluorescent assay of sEH inhibitory potency; assay type: biochemical; conditions: for fold drop of activity compared to 3a: ratio of IC50 to that of 3a; for fold increase of activity compared to 3a: ratio of IC50 of 3a to that of the compound
T1 sequence (P34913 1-555): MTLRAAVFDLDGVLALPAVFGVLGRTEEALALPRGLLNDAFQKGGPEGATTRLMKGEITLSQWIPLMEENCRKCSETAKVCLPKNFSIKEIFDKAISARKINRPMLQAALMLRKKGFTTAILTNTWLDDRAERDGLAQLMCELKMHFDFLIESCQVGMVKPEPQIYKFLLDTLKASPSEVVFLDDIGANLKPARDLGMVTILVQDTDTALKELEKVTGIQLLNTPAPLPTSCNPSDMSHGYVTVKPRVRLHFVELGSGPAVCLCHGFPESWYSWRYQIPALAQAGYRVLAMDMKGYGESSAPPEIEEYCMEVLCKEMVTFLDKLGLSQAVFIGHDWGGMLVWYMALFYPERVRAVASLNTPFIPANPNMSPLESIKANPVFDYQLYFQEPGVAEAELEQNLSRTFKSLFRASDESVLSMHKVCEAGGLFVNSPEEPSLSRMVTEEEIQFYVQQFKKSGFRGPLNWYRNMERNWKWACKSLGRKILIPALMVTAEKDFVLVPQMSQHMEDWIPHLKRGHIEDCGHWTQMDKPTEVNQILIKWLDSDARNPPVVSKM

[1] = solubility in sodium phosphate buffer; assay type: physicochemical; conditions: pH 7.4, aqueous buffer, kinetic from dmso stock
[2] = experimental LogP by HPLC-MS; assay type: physicochemical

| SMILES | fold more active than 2-hydroxy substituted analog (human sEH) [fold] | fold more active than unsubstituted 1-(adamantan-1-yl)-3-phenyl urea (human sEH) [fold] | solubility [1] [µM] | chromatographic logP [2] | fold drop of activity compared to 3a (human sEH) [fold] | fold increase of activity compared to 3a (human sEH) [fold] |
| --- | --- | --- | --- | --- | --- | --- |
| O=C(Nc1ccccc1F)NC12CC3CC(CC(C3)C1)C2 [3a, 1-(Adamantan-1-yl)-3-(2-fluorophenyl) urea] | 37 | 4 | 70 to 80 (≈ 20.2 to 23.1 µg/mL) | – | – | – |
| O=C(NCC12CC3CC(CC(C3)C1)C2)Nc1ccccc1F [3b, 1-[(Adamantan-1-yl)methyl]-3-(2-fluorophenyl) urea] | – | – | 60 to 70 (≈ 18.1 to 21.2 µg/mL) | 4.4 | – | – |
| CC(NC(=O)Nc1ccccc1F)C12CC3CC(CC(C3)C1)C2 (stereo not shown) [3c, 1-[1-(Adamantan-1-yl)ethyl]-3-(2-fluorophenyl) urea] | – | – | 50 to 60 (≈ 15.8 to 19 µg/mL) | 4.75 | 15 | – |
| CCC(CC12CC3CC(CC(C3)C1)C2)NC(=O)Nc1ccccc1F (stereo not shown) [3d, 1-[1-(Adamantan-1-yl)butane-2-yl]-3-(2-fluorophenyl) urea] | – | – | 50 to 60 (≈ 17.2 to 20.7 µg/mL) | 5.8 | 170 | – |
| O=C(Nc1ccc(C23CC4CC(CC(C4)C2)C3)cc1)Nc1ccccc1F [3e, 1-[4-(Adamantan-1-yl)phenyl]-3-(2-fluorophenyl) urea] | – | – | 80 to 90 (≈ 29.2 to 32.8 µg/mL) | – | – | – |

The next lines start with the values.

| fold more active than 2-hydroxy substituted analog (human sEH) [fold] | fold more active than unsubstituted 1-(adamantan-1-yl)-3-phenyl urea (human sEH) [fold] | solubility [1] [µM] | chromatographic logP [2] | fold drop of activity compared to 3a (human sEH) [fold] | fold increase of activity compared to 3a (human sEH) [fold] | SMILES |
| --- | --- | --- | --- | --- | --- | --- |
| – | – | 50 to 60 (≈ 15.1 to 18.1 µg/mL) | – | – | 2.5 | CC12CC3CC(C1)CC(NC(=O)Nc1ccccc1F)(C3)C2 [3f, 1-[3-methyl(Adamantan-1-yl)]-3-(2-fluorophenyl) urea] |
| – | – | 70 to 80 (≈ 23.1 to 26.4 µg/mL) | – | 25 | – | CC12CC3(C)CC(C)(C1)CC(NC(=O)Nc1ccccc1F)(C2)C3 [3h, 1-[3,5,7-trimethyl(Adamantan-1-yl)]-3-(2-fluorophenyl) urea] |
| – | – | 80 to 90 (≈ 23.1 to 26 µg/mL) | – | – | 3.7 | O=C(Nc1ccccc1F)NC1C2CC3CC(C2)CC1C3 (stereo not shown) [3i, 1-(Adamantan-2-yl)-3-(2-fluorophenyl) urea] |
| – | – | – | 6.55 | – | – | CCCC(CNC(=O)Nc1ccccc1F)C1C2CC3CC(C2)CC1C3 (stereo not shown) [3j, 1-[2-(Adamantan-2-yl)pentane-1-yl]-3-(2-fluorophenyl) urea] |
